Assay results from patent publication EP0598011B1, “ECDYSTEROID DEPENDENT REGULATION OF GENES IN MAMMALIAN CELLS” (GENENTECH, INC., priority 1991, dated 1993).

Assays:
Assay type in all cases: cell-based
G"E"Ec = target: T1, G"E"Ec (UniProt P06536+P34021, G458E/S459G); assay: Induction of ERE reporter E4M-77CO by chimeric receptor G"E"Ec; conditions: cells incubated 48 hrs
T1 construct: expressed in transfected cells
Experimental: Figure. 6. Induction of […] (EREs) by chimeric receptors. Cells were transfected with expression plasmids encoding eiher DHR23α (EcEcEc), G"E"G or G"E"Ec and E4M-77CO, that contains 4 EREs fused to the MTV promoter. Cells were incubated for 48 hrs with or wihout (-) or with muristerone A (M) or dexamethasone (D).
I then determined if a DHR23 fusion protein could regulate genes normally responsive to estrogens.
Cells were transfected with expression plasmids encoding either DHR23α (EcEcEc), G"E"G or G"E"Ec and E4M-77CO, that contains 4 EREs fused to the MTV promoter. Cells were incubated for 48 hrs with or without (-) or with muristerone A (M) or dexamethasone (D). Reporter gene activity was determined as described above for Figure 2.

VXEc = target: T2, VXEc (Drosophila melanogaster, UniProt P34021); assay: Reporter OC-33CO lacking lex-operators with VXEc; conditions: receptor VXEc, SD in parentheses
T2 construct: expressed in transfected cells
T2 sequence (P34021 329-878): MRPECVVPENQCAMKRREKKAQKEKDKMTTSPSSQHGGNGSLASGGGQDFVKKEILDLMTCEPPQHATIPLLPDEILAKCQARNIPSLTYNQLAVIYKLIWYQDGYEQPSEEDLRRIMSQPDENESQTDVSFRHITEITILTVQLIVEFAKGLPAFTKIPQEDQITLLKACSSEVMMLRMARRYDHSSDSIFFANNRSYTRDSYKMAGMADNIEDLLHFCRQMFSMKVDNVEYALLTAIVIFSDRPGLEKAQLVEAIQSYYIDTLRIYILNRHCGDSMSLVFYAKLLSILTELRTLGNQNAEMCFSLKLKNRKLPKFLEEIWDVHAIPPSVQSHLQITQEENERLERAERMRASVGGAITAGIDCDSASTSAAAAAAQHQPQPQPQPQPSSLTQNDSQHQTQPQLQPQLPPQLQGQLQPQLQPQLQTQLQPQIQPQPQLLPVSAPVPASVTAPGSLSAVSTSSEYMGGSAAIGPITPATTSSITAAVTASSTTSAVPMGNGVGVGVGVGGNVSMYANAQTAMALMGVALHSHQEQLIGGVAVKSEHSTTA
Text: Finally, I determined if the activity of DHR23α fusion proteins could be further enhanced by inclusion of a potent viral transactivation domain. I constructed VGEc and VLxEc fusion genes by replacing a portion of the GR N-terminal activation domain in GGEc and GLxEc, respectively, with the herpes virus VP16 acidic activation domain (I. Sadowski et al., […]. 335, 563 [1988]; D. J. Cousens, R. Greaves, C. R. Coding, and P. O'Hare, EMBO J. 8, 2337 [1989]) (Fig. 4A). In transfected cells, these proteins accumulated to similar levels as derivatives lacking the VP16 activation domain (Fig. 4B). Both VGEc and VLxEc acted in an ecdysteroid-dependent fashion to induce activity of the appropriate reporter gene (Tables 1 and 2). However, the activity of VGEc and VLxEc was 5 and 10 fold greater than GGEc and GLxEc, respectively (M..A. Labow, S.B. Baim, T. Shenk, and A. J. Levine, Mol. and Cell. Biol. 10, 3343 [1990]). Thus, the DHR23α ligand-binding domain can be used to regulate the activities of viral, mammalian and bacterial DNA-binding or transactivation domains.
(§1) Illustrated in Table 2 is the transcriptional activation by receptor-LexA fusion proteins. […] The cells were incubated either with (+) or without (-) muristerone A. The fold induction was determined as described previously; the standard deviations are shown in parenthesis.

X4C-33CO = assay: Lex-operator reporter X4C-33CO, control effector plasmid without receptor cDNA; conditions: SD in parentheses
Text: Such fusion constructs are expected to be useful in regulating the expression of exogenous genes introduced into transgenic mammals or mammalian cells. I next determined if the DHR23α ligand-binding domain could be used to regulate the activity of a DNA-binding domain not normally expressed in mammalian cells. I constructed the chimeric gene GLxEc by replacing the sequences coding for the GR DNA-binding domain in the GGEc fusion with those encoding the DNA-binding domain of the Escherichia coli LexA repressor (J. W. Little and S. A. Hill, Proc. Natl. Acad. Sci. U.S.A. 82, 2301 [1985]) (Fig. 4). A reporter gene, X4C-33CO was constructed that contains 4 copies of a 26-bp lex operator (R. Brent and M. Ptashne, Nature 312, 612 [1984]) at position -33 of the CMV promoter. GLxEc had no effect on the expression of a OC-33CO, a reporter gene lacking the lex operator (Fig. 6B).
as §1, with “proteins. Effector plasmids encoding the indicated receptor proteins were transfected with a reporter gene either containing (X4C-33CO) or lacking (OC-33CO) lex-operators.” for “proteins.”

T1 sequence (P19793 whole entry): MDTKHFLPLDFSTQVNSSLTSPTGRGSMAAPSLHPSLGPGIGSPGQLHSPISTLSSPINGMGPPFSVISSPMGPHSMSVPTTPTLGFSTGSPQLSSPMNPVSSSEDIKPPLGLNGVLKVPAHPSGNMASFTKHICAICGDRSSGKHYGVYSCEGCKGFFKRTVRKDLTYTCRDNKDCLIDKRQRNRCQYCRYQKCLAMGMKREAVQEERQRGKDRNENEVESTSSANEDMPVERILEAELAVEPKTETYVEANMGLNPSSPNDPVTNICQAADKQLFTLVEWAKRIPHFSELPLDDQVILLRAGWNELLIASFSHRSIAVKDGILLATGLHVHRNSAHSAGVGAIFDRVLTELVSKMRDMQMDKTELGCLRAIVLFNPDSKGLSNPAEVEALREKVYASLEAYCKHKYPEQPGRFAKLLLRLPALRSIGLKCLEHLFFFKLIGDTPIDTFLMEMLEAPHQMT
T1 sequence (P06536+P34021 fused P06536:G458E/P06536:S459G): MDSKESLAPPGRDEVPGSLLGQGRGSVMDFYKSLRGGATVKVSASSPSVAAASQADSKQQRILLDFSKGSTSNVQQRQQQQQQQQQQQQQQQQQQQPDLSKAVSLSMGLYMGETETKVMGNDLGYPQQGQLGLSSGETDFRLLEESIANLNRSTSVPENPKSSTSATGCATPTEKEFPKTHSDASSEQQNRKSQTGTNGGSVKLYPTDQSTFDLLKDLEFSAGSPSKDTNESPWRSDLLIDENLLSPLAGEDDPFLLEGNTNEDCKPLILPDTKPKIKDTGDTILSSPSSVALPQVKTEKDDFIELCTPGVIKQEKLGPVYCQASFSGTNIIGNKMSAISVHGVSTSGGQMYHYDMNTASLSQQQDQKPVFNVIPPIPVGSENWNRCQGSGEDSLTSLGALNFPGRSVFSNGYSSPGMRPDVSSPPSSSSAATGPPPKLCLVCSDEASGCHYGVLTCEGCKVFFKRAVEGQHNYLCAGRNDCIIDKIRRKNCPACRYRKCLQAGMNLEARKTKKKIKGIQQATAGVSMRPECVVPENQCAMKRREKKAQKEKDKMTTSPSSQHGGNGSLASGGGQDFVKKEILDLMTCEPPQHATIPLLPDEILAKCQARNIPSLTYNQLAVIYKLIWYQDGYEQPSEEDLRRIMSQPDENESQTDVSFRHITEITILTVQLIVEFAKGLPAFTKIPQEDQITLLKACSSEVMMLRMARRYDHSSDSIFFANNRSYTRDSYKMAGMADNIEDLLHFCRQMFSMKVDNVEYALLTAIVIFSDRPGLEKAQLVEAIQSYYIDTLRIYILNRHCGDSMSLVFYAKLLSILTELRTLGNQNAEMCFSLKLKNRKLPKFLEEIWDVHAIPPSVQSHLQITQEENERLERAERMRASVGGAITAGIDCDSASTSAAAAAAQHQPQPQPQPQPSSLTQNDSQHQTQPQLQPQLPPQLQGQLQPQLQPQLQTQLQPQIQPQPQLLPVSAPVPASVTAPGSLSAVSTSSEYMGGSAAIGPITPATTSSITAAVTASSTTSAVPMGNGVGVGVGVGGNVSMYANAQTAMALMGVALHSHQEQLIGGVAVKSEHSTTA

CC(C)CCC(O)[C@](C)(O)[C@H]1CC[C@@]2(O)C3=CC(=O)C4(O)CC(O)C(O)C[C@]4(C)[C@H]3C(O)C[C@]12C (stereo partly drawn) [muristerone A, 2,3,5,11,14,20,22-Heptahydroxy-7-cholesten-6-one]
regulation of ERE containing reporter gene E4M-77CO (G"E"Ec): regulates the ERE containing reporter gene E4M-77CO in a muristerone-dependent fashion | fold induction (VXEc): 1.0 (0.2) fold | fold induction (X4C-33CO): 1.1 (0.3) fold
